US20210121437A1, “[…] AGENTS […] FLAVONOID DERIVATIVES TARGETING KINASES, SIRTUINS AND ONCOGENIC AGENTS FOR THE TREATMENT OF MULTIPLE MYELOMA, LYMPHOMA, AND […]” (priority 2015, published 2021)
Where two headings read alike, the source gives them in different places.

Key:
[1] = molecular target: SIRT-5 (Homo sapiens, UniProt Q9NXA8); test: inhibition of sirtuins; assay type: biochemical
Source text: Inhibition of Sirtuins, matrix metalloproteinase, bromodomains was also confirmed using standard protocols and the results are present in Table 2.

[2] = system: human pancreatic cancer xenograft CFPAC-1 cells; test: human pancreatic cancer xenograft CFPAC-1 in scid mice; assay type: in vivo; conditions: CFPAC-1 xenograft
Source text: The results of the anticancer activity are presented in Tables 3 and 4 (above) and in FIG. 6, Hela cells shown at (A) and CMK cells at (B) and MV4-11 and MOLT-14 acute myeloid leukemia cells.

[3] = molecular target: T1, MEK5 (Homo sapiens, UniProt Q13163); test: kinase competition binding assay; conditions: Table 1
T1 construct: T7 phage fusion (most assays) or DNA tag for qPCR (HEK-293-made kinases); made in house
Method: (§1) Cannabis flavonoids and their analogs were subjected to kinase inhibition assay. The compounds were first screened at a single concentration of 10 μM in the primary assay. […]. To determine the kd or IC50 values, competition binding assays were established, authenticated and executed as described previously. Fabian et al., “A Small Molecule-Kinase Interaction Map For Clinical Kinase Inhibitors.”, Nat Biotechnol, 23(3):329-36, Epub (2005). See also, Karaman et al., “A Quantitative Analysis Of Kinase Inhibitor Selectivity”, Nat. Biotechnol. […] For most assays, kinases were fused to T7 phage strains (Fabian, supra) and for the other assays, kinases were produced in HEK-293 cells after which they were tagged with DNA for quantitative PCR detection. In general, full-length constructs were used for small, single domain kinases, and catalytic domain constructs for large multi-domain kinases. The binding assays utilized streptavidin-coated magnetic beads treated with biotinylated small molecule ligands for 30 minutes at room temperature which generated affinity resins for the kinase assays. The liganded beads were blocked with excess biotin and washed with blocking buffer (SeaBlock (Pierce), 1% BSA, 0.05% Tween 20, 1 mM DTT) to remove unbound ligand and to reduce non-specific phage binding. […] Test compounds were prepared as 40× stocks in 100% DMSO and diluted directly into the assay (Final DMSO concentration=2.5%). All reactions were performed in polypropylene 384-well plates in a final volume of 0.04 ml. […] The beads were then re-suspended in elution buffer (1×PBS, 0.05% Tween 20, 0.5 μM non-biotinylated affinity ligand) and incubated at room temperature with shaking for 30 minutes. The kinase concentration in the eluates was measured by quantitative PCR. An illustration of the kinase interaction process is presented below. Kd/IC50 values were determined using a standard dose response curve using the hill equation. Curves were fitted using a non-linear least square fit with the Levenberg-Marquardt algorithm.

[4] = molecular target: T2, PDGFRa (Homo sapiens, UniProt P16234); test: kinase competition binding assay; conditions: Table 1
T2 construct: catalytic domain constructs for large multi-domain kinases; T7 phage fusion (most assays) or DNA tag for qPCR (HEK-293-made kinases); made in house
T2 sequence (P16234 593-954 limits assumed): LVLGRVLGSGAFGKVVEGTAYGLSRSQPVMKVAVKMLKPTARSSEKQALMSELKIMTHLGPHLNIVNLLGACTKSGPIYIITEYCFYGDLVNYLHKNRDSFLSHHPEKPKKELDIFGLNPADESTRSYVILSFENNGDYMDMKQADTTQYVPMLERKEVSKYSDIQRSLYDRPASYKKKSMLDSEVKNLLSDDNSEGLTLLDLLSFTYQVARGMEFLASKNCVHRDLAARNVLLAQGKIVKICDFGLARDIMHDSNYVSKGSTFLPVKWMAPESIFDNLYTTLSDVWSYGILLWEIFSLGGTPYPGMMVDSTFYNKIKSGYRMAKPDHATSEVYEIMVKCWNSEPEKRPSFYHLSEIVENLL
Method: as §1

[5] = molecular target: T3, Yes/yes1 (Homo sapiens, UniProt P07947); test: kinase competition binding assay; conditions: Table 1
T3 construct: T7 phage fusion (most assays) or DNA tag for qPCR (HEK-293-made kinases); made in house
T3 sequence (P07947 whole entry, the tested form may be a part): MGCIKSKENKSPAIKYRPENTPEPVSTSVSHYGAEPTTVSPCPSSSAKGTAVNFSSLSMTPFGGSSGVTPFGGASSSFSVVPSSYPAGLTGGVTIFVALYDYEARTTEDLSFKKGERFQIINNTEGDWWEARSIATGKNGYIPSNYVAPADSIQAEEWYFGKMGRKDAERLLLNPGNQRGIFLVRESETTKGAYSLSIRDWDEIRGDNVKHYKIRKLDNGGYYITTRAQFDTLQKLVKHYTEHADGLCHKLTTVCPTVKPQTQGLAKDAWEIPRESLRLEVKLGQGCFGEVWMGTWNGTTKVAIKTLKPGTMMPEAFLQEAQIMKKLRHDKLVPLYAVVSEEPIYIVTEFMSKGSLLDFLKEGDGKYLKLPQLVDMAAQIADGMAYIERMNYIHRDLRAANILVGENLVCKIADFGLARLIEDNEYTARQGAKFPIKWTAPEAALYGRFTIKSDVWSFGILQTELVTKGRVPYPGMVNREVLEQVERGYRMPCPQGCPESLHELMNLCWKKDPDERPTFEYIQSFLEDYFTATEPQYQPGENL
Method: as §1

[6] = molecular target: T4, TXK (Homo sapiens, UniProt P42681); test: kinase competition binding assay; conditions: Table 1
T4 construct: T7 phage fusion (most assays) or DNA tag for qPCR (HEK-293-made kinases); made in house
T4 sequence (P42681 whole entry, the tested form may be a part): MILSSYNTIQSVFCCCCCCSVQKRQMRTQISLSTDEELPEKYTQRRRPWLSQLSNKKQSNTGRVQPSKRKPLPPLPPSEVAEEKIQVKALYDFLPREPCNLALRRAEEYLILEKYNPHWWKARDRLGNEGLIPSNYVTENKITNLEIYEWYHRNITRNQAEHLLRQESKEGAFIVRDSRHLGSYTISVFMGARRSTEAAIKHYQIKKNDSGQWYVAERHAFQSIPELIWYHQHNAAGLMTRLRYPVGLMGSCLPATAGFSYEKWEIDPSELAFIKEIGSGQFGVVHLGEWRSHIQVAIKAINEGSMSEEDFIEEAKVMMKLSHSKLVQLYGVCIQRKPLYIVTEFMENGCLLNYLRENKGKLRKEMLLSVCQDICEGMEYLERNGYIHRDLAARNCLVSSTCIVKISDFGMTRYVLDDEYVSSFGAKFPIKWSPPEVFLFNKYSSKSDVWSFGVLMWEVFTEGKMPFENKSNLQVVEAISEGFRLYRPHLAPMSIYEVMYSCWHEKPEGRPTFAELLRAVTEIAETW
Method: as §1

[7] = molecular target: T5, SRC (Homo sapiens, UniProt P12931); test: kinase competition binding assay; conditions: Table 1
T5 construct: T7 phage fusion (most assays) or DNA tag for qPCR (HEK-293-made kinases); made in house
T5 sequence (P12931 whole entry, the tested form may be a part): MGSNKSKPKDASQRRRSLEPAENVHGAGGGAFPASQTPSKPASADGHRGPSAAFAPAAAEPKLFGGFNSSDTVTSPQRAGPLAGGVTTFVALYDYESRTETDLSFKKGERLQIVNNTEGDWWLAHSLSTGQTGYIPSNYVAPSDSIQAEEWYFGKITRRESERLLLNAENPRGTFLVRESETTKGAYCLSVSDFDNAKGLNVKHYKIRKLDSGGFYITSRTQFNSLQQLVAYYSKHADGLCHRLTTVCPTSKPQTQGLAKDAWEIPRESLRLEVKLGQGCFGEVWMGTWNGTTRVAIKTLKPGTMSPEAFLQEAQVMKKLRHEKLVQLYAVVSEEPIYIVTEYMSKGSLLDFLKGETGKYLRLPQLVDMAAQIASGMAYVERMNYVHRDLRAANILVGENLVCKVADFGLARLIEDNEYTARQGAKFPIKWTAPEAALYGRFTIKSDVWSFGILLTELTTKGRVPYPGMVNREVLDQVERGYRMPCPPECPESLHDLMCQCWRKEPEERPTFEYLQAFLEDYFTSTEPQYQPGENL
Method: as §1

[8] = molecular target: T6, JAK3 (Homo sapiens, UniProt P52333); test: kinase competition binding assay; conditions: Table 1
T6 construct: full-length constructs were used for small, single domain kinases, and catalytic domain constructs for large multi-domain kinases; T7 phage fusion (most assays) or DNA tag for qPCR (HEK-293-made kinases); made in house
T6 sequence (P52333 whole entry, the tested form may be a part): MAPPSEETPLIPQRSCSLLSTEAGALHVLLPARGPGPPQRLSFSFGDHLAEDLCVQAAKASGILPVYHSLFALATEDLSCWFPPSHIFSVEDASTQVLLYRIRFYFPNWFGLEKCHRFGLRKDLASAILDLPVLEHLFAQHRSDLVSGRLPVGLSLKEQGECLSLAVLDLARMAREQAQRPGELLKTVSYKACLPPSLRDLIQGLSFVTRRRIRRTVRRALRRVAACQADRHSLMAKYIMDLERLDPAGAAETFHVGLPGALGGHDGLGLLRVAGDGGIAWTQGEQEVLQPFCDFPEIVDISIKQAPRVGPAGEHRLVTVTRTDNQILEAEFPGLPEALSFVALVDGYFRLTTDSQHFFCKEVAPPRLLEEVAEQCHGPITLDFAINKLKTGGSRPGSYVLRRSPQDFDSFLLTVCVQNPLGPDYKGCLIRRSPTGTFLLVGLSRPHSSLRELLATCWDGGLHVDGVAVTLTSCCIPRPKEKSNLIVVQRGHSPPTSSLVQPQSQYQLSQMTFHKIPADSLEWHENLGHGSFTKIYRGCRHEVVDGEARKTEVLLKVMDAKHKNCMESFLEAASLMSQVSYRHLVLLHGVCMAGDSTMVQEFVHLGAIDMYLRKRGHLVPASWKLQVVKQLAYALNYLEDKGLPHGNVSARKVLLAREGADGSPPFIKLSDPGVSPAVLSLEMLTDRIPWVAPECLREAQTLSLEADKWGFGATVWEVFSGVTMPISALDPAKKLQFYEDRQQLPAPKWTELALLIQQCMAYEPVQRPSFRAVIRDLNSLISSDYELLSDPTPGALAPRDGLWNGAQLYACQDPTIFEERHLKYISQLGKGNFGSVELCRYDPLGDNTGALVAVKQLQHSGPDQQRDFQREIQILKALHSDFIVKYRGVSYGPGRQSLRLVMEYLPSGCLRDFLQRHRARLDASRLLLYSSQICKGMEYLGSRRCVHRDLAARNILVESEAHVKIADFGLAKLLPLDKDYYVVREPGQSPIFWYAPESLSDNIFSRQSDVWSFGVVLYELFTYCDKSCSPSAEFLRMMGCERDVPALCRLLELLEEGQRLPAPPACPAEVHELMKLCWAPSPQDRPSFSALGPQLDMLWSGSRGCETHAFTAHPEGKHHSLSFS
Method: as §1

[9] = molecular target: T7, JAK2 (Homo sapiens, UniProt O60674); test: kinase competition binding assay; conditions: Table 1
T7 construct: full-length constructs were used for small, single domain kinases, and catalytic domain constructs for large multi-domain kinases; T7 phage fusion (most assays) or DNA tag for qPCR (HEK-293-made kinases); made in house
Method: as §1

[10] = molecular target: T8, DRAK2 (Homo sapiens, UniProt O94768); test: kinase competition binding assay; conditions: Table 1
T8 construct: full-length constructs were used for small, single domain kinases, and catalytic domain constructs for large multi-domain kinases; T7 phage fusion (most assays) or DNA tag for qPCR (HEK-293-made kinases); made in house
Method: as §1

[11] = molecular target: T9, MELK (Homo sapiens, UniProt Q14680); test: kinase competition binding assay; conditions: Table 1
T9 construct: full-length constructs were used for small, single domain kinases, and catalytic domain constructs for large multi-domain kinases; T7 phage fusion (most assays) or DNA tag for qPCR (HEK-293-made kinases); made in house
Method: as §1

[12] = molecular target: T10, PDGFRa(T6741) (Homo sapiens, UniProt P16234, T674I); test: kinase competition binding assay; conditions: Table 1
T10 construct: catalytic domain constructs for large multi-domain kinases; T7 phage fusion (most assays) or DNA tag for qPCR (HEK-293-made kinases); made in house
T10 sequence (P16234 593-954 T674I limits assumed): as the sequence (P16234 593-954 limits assumed) above, with T82I counted along it
Method: as §1

[13] = molecular target: T11, PIP5K1A (Homo sapiens, UniProt Q99755); test: kinase competition binding assay; conditions: Table 1
T11 construct: T7 phage fusion (most assays) or DNA tag for qPCR (HEK-293-made kinases); made in house
Method: as §1

[14] = molecular target: T12, MNK2 (Homo sapiens, UniProt Q9HBH9); test: kinase competition binding assay; conditions: Table 1
T12 construct: T7 phage fusion (most assays) or DNA tag for qPCR (HEK-293-made kinases); made in house
Method: as §1

[15] = molecular target: T13, BIKE (Homo sapiens, UniProt Q9NSY1); test: kinase competition binding assay; conditions: Table 1
T13 construct: full-length constructs were used for small, single domain kinases, and catalytic domain constructs for large multi-domain kinases; T7 phage fusion (most assays) or DNA tag for qPCR (HEK-293-made kinases); made in house
Method: as §1

[16] = molecular target: T14, c-SRC (Homo sapiens, UniProt P12931); test: kinase competition binding assay; conditions: Table 1
T14 construct: T7 phage fusion (most assays) or DNA tag for qPCR (HEK-293-made kinases); made in house
T14 sequence (P12931 whole entry, the tested form may be a part): as the sequence (P12931 whole entry, the tested form may be a part) above
Method: as §1

[17] = molecular target: T15, FLT3(D835V) (Homo sapiens, UniProt P36888, D835V); test: kinase competition binding assay; conditions: Table 1
T15 construct: full-length constructs were used for small, single domain kinases, and catalytic domain constructs for large multi-domain kinases; T7 phage fusion (most assays) or DNA tag for qPCR (HEK-293-made kinases); made in house
Method: as §1

[18] = molecular target: T16, PIK4CB (Homo sapiens, UniProt Q9UBF8); test: kinase competition binding assay; conditions: Table 1
T16 construct: T7 phage fusion (most assays) or DNA tag for qPCR (HEK-293-made kinases); made in house
Method: as §1

[19] = molecular target: T17, JAK1 (Homo sapiens, UniProt P23458); test: kinase competition binding assay; conditions: Table 1
T17 construct: full-length constructs were used for small, single domain kinases, and catalytic domain constructs for large multi-domain kinases; T7 phage fusion (most assays) or DNA tag for qPCR (HEK-293-made kinases); made in house
Method: as §1

[20] = molecular target: T18, PIK3CA(1800L) (Homo sapiens, UniProt P42336, I800L); test: kinase competition binding assay; conditions: Table 1
T18 construct: T7 phage fusion (most assays) or DNA tag for qPCR (HEK-293-made kinases); made in house
T18 sequence (P42336 whole entry I800L, the tested form may be a part): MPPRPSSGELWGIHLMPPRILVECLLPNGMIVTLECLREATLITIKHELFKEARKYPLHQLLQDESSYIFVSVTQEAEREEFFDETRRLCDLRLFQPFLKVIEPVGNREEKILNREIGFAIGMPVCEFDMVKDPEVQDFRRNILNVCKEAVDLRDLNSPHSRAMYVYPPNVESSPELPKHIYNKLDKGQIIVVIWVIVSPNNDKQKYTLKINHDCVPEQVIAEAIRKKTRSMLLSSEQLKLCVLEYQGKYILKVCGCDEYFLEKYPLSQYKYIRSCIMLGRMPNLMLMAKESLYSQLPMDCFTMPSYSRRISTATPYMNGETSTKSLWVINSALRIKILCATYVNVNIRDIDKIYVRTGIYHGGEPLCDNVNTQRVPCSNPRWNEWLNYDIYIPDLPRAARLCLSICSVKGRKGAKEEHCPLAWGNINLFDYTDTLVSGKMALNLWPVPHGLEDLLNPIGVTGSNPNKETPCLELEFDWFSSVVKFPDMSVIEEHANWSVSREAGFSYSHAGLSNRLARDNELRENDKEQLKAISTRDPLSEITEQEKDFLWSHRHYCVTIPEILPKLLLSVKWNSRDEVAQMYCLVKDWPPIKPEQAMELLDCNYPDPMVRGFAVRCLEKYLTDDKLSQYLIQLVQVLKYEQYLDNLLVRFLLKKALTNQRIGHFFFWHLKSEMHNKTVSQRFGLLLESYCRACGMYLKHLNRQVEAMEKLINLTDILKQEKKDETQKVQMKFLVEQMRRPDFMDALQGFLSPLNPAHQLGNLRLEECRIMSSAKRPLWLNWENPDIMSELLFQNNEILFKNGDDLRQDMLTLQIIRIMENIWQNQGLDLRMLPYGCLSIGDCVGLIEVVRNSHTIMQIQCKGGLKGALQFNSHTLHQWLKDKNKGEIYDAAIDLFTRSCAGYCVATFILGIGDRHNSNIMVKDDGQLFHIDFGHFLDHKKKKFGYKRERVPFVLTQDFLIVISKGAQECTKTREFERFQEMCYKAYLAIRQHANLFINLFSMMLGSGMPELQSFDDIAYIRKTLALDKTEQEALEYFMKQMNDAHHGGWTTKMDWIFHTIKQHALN
Method: as §1

[21] = system: MM.1S (Multiple Myeloma); test: anticancer cell proliferation assay (WST-1); assay type: cell-based; conditions: 72 hours
Method: (§2) Bioactivity of the above-described compounds has been verified by an anticancer cell proliferation assay using the WST-1 (4-[3-(4-iodophenyl)-2-(4-nitrophenyl)-2H-5-tetrazoliol-1, 3-benzene disulfonate) colorimetric assay by Roche Life Sciences®. Anticancer activity was tested against several standard cancer cell lines including brain, breast, Kaposi sarcoma, leukemia, lung, melanoma, tenosynovial giant cell tumor, ovarian, pancreatic, colon and prostate cancer. Cells were trypsinized and plated into 96 well plates in 50 μl of media and incubated overnight. The next day approximately 18 hours after plating, 50 μl of media containing the required flavonoid-based pharmaceutical composition was added per well. Cells were plated at a density so that 72 hours post drug addition, the cells will be in log phase (500-2000 cells/well). The compounds and extracts were solubilized in Dimethyl sulfoxide (DMSO). The cells are allowed to proliferate for 72 hours 37° C. in humidified atmosphere of 5% CO2. The experiment is terminated using WST-1 (Roche®) 10 μl per well and absorbance is read at 450 nm/690 nm. The effect of drugs on growth is assessed as percent of cell viability. The IC50 values were determined from the extract dose versus control growth curves using Graphpad Prism® software. All experiments were carried out in duplicate and the mean results determined.

[22] = system: KMS-11 (Multiple myeloma); test: anticancer cell proliferation assay (WST-1); assay type: cell-based; conditions: 72 hours
Method: as §2

[23] = system: MV4-11 (Leukemia); test: anticancer cell proliferation assay (WST-1); assay type: cell-based
Method: as §2, with “Anticancer” for “Bioactivity of the above-described compounds has been verified by an anticancer cell proliferation assay using the WST-1 (4-[3-(4-iodophenyl)-2-(4-nitrophenyl)-2H-5-tetrazoliol-1, 3-benzene disulfonate) colorimetric assay by Roche Life Sciences®. Anticancer”

[24] = molecular target: T19, FLT3(ITD) (Homo sapiens, UniProt P36888); assay type: binding; conditions: Table 1
T19 construct: In general, full-length constructs were used for small, single domain kinases, and catalytic domain constructs for large multi-domain kinases; fused on or other part: T7 phage fusion or DNA tag for qPCR detection
Method: (§3) Cannabis flavonoids and their analogs were subjected to kinase inhibition assay. The compounds were first screened at a single concentration of 10 μM in the primary assay. […] To determine the kd or IC50 values, competition binding assays were established, authenticated and executed as described previously. […] See also, Karaman et al., “A Quantitative Analysis Of Kinase Inhibitor Selectivity”, Nat. Biotechnol. […] For most assays, kinases were fused to T7 phage strains (Fabian, supra) and for the other assays, kinases were produced in HEK-293 cells after which they were tagged with DNA for quantitative PCR detection. In general, full-length constructs were used for small, single domain kinases, and catalytic domain constructs for large multi-domain kinases. […] The liganded beads were blocked with excess biotin and washed with blocking buffer (SeaBlock (Pierce), 1% BSA, 0.05% Tween 20, 1 mM DTT) to remove unbound ligand and to reduce non-specific phage binding. […] All reactions were performed in polypropylene 384-well plates in a final volume of 0.04 ml. […] The kinase concentration in the eluates was measured by quantitative PCR. An illustration of the kinase interaction process is presented below. Kd/IC50 values were determined using a standard dose response curve using the hill equation. Curves were fitted using a non-linear least square fit with the Levenberg-Marquardt algorithm.

[25] = system: Normal Bone marrow; test: anticancer cell proliferation assay (WST-1); assay type: cell-based; conditions: Table 4
Method: as §2

[26] = system: MOLM-14 Acute Myeloid Leukemia cell line; test: anticancer cell proliferation assay (WST-1); assay type: cell-based; conditions: Table 4; read-out: IC50 Acute Myeloid Leukemia cell lines MOLM-14
Method: as §2, with “Anticancer” for “Bioactivity of the above-described compounds has been verified by an anticancer cell proliferation assay using the WST-1 (4-[3-(4-iodophenyl)-2-(4-nitrophenyl)-2H-5-tetrazoliol-1, 3-benzene disulfonate) colorimetric assay by Roche Life Sciences®. Anticancer”

[27] = system: THP-1 Acute Myeloid Leukemia cell line; test: anticancer cell proliferation assay (WST-1); assay type: cell-based; conditions: Table 4; read-out: IC50 Acute Myeloid Leukemia cell lines THP-1
Method: as §2, with “Anticancer” for “Bioactivity of the above-described compounds has been verified by an anticancer cell proliferation assay using the WST-1 (4-[3-(4-iodophenyl)-2-(4-nitrophenyl)-2H-5-tetrazoliol-1, 3-benzene disulfonate) colorimetric assay by Roche Life Sciences®. Anticancer”

[28] = molecular target: T20, FLT3(D835Y) (Homo sapiens, UniProt P36888, D835Y); assay type: binding; conditions: Table 4; read-out: IC50 Kinases FLT3-D835Y
T20 construct: full-length constructs were used for small, single domain kinases, and catalytic domain constructs for large multi-domain kinases; T7 phage fusion (most assays) or DNA tag for qPCR (HEK-293-made kinases); made in house
Method: as §3

[29] = system: 60 cancer cell line panel; conditions: US National Cancer Institute 60 cancer cell line panel; cited from earlier work

Sequence of SIRT-5 (Q9NXA8 37-310): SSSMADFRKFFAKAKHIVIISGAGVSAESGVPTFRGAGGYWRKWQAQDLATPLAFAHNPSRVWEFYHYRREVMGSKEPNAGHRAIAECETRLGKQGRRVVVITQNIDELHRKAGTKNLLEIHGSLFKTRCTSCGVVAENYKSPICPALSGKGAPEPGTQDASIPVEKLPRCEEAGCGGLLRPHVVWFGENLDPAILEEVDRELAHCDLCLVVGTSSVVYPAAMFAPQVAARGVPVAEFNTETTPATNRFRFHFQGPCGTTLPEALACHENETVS

COc1cc(-c2cc(=O)c3c(O)c(C/C=C(\C)CCC=C(C)C)c(O)cc3o2)ccc1O [FBL-03A]
IC50 [1]: 123 µM

COc1cc(-c2cc(=O)c3c(O)c(CC=C(C)C)c(O)cc3o2)ccc1O [FBL-03B]
inhibition of tumor compared to the control [2]: significant inhibition of tumor

COc1cc(-c2cc(=O)c3c(O)cc(O)c(CC=C(C)C)c3o2)ccc1O [FBL-03G, Caflanone]
IC50 [3]: 190 nM | IC50 [4]: 698 nM | IC50 [5]: 294 nM | IC50 [6]: 164 nM | IC50 [7]: 1700 nM | IC50 [8]: 5.58 nM | IC50 [9]: 1850 nM | IC50 [10]: 1400 nM | IC50 [11]: 88.9 nM | IC50 [12]: 1670 nM | IC50 [13]: 320 nM | IC50 [14]: 549 nM | IC50 [15]: 81 nM | IC50 [16]: 1100 nM | IC50 [17]: 12.5 nM | IC50 [18]: 136 nM | IC50 [19]: 644 nM | IC50 [20]: 125 nM | IC50 [21]: 950 nM | IC50 [22]: 64.7 nM | inhibition of tumor compared to the control [2]: significant inhibition of tumor | IC50 ([23]; Table 3, 72 hours, WST-1, read-out: IC50 MV4-11 (Leukemia)): 38.6 nM | IC50 [24]: 38.2 nM

COc1ccc(-c2cc(=O)c3c(O)cc(O)cc3o2)cc1O [FBLGS-71]
IC50 [25]: > 100 µM | IC50 ([23]; Table 4, read-out: IC50 Acute Myeloid Leukemia cell lines MV4-11): 3260 nM | IC50 [26]: 3.68 µM | IC50 [27]: > 100 µM

COc1ccc(-c2cc(=O)c3c(O)cc(O)cc3o2)cc1 [FBLGS-73]
IC50 [25]: > 100 µM | IC50 [27]: > 100 µM | IC50 [28]: 49 nM

COc1cc(-c2cc(=O)c3c(O)c(CC=C(C)C)c(O)cc3o2)ccc1O [cannflavin B]
cytotoxicity against cancer cells [29]: not cytotoxic
